Experimental data as given in patent publication US8598125B2, “CDCA1 peptide and pharmaceutical agent comprising the same” (Onco Therapy Science, Inc., priority 2007, dated 2013).
Where no end group is shown, it is not given here.

Experiments:
Format in all cases: cell-based
[1] = system: PANC1 cells (CDCA1+, HLA-A2+); experiment: 51Cr release assay of peptide-induced human CTLs against PANC1; details: No. 1: cancer patient donor 1 CTLs; No. 4: healthy donor 1 CTLs
Text: (§1) Monocyte-derived DC cells were used as antigen-presenting cells for induction of CTLs in response to HLA-presented peptides. DCs were obtained by previously reported in vitro methods (Suda T, et al. Cancer Sci. 2007; Nakahara S, et al. Cancer Res. 2003; 63:4112-8). Briefly, peripheral blood […] (PBMCs) isolated from HLA-A*0201 positive healthy volunteers and NSCLC patients using a Ficoll-Paque solution (GE Healthcare UK, Ltd., Buckinghamshire, UK) were screened for […] CD14 positive populations using MicroBeads (Miltenyi Biotec, Bergisch Gladbach, Germany). […] Six days after the third peptide stimulation on day 25, the antigen-specific CTL response was evaluated by Chromium (Cr) release assay and IFN-γ ELISPOT assay.
(§2) CTLs were co-cultured at various effector cell/target cell ratios with target cells which are various cancer cell lines and T2 cells with or without peptide pulsing, and ^51Cr release assay and IFN-γ ELISPOT assay were conducted using conventional methods (Komori H, et al., Clin. Cancer Res. 2006; 12:2689-2697; Makita M, et al. Clin. Cancer Res. 2002; 8:2626-31; Yokomine K, et al. Cancer Sci. 2007; 98:1930-5). […] Six hours after incubation, 50 μL of the supernatant was collected from each well, and radioactivity was quantified using a gamma counter. […]

[2] = system: COLO201 cells (CDCA1−, HLA-A2+); experiment: 51Cr release assay of peptide-induced human CTLs against COLO201; details: cancer patient donor 1 CTLs
Text: as §1, §2

[3] = system: A549 cells (CDCA1+, HLA-2−); experiment: 51Cr release assay of peptide-induced human CTLs against A549; details: No. 1: cancer patient donor 1 CTLs; No. 4: healthy donor 1 CTLs
Text: as §1, §2

peptide-pulsed T2 cells = experiment: 51Cr release assay of peptide-induced human CTLs against peptide-pulsed T2 cells; details: CTLs from cancer patient donor 1 and healthy donor 1
Text: as §1, §2

Row | Sequence | cytotoxic activity against PANC1 cells [1] | cytotoxic activity against COLO201 cells [2] | cytotoxic activity against A549 cells [3] | cytotoxic activity against peptide-pulsed T2 cells (peptide-pulsed T2 cells)
1 | YMMPVNSEV [No. 1, YMMPVNSEV] | showed cytotoxic activity | not | not | showed cytotoxic activity
2 | KLATAQFKI [No. 4, KLATAQFKI] | showed cytotoxic activity | – | not | showed cytotoxic activity
